These results are taken from patent US10183021B2, “sGC stimulators” (Ironwood Pharmaceuticals, Inc., priority 2013, dated 2019).

The experiment addresses soluble guanylate cyclase (sGC) (Homo sapiens (Human), UniProt Q02108+Q02153). The experiment can be described thus: sGC-HEK-cGMP assay with SNP incubation, LC/MS detection (Example 2A). Particulars: HEK293 cells, 10 μM SNP, LC/MS detection; for Emax: 100% = BAY 41-2272 at 10 μM, read-out: HEK assay Emax - unconstrained (%); for EC50: top of curve not fitted to 100%, read-out: HEK assay EC50 - unconstrained. The experiment is classed as cell-based. The protocol: Human embryonic kidney cells (HEK293), endogenously expressing soluble guanylate cyclase (sGC), were used to evaluate the activity of test compounds. Compounds stimulating the sGC receptor should cause an increase in the intracellular concentration of cGMP. HEK 293 cells were seeded in Dulbecco's Modification of Eagle's Medium supplemented with fetal bovine serum (10% final) and L-glutamine (2 mM final) in a 200 L volume at a density of 1×10^5 cells/well in a poly-D-lysine coated 96 well flat bottom plate and grown overnight at 37° C. Medium was aspirated and cells were washed with 1× Hank's Buffered Saline Salt Solution (200 μL). Cells were then incubated for 15 minutes at 37° C. with 200 μL of a 0.5 mM 3-isobutyl-1-methylxanthine (IBMX) solution. Test article and sodium nitroprusside solutions (x μM concentration for test article solution and 10 μM concentration for SNP solution; wherein x is one of the following concentrations: 30 μM, 10 μM, 3 μM, 1 μM, 0.3 μM, 0.1 μM, 0.03 μM, 0.01 μM, 0.003 μM, 0.001 μM, 0.0003 μM or 0.0001 μM) were then added to the assay mixture (2 μL each) and the resulting mixture incubated at 37° C. for 10 minutes. After the 10 minute incubation, the assay mixture was aspirated and 0.1M HCl (200 μL) was added to the cells. The plate was incubated at 4° C. for 30 minutes in the 0.1M HCl to stop the reaction and lyse the cells. The plates were then centrifuged at 1,200 g for 5 minutes at room temperature. Supernatants were collected and transferred to a new flat bottom 96 well plate for analysis by HPLC-MS. Vehicle controls were carried out using DMSO (1%) solutions. A known sGC stimulator, BAY 41-2272, was used as the positive control. Samples were diluted with an equal volume of 1 M Ammonium Acetate (pH 7) to neutralize samples for better chromatography. A 2× cGMP standard solution was prepared in 0.1 M HCl and then diluted with an equal volume of 1 M Ammonium Acetate, with the following final concentrations in nM: 1024, 512, 256, 128, 64, 32, 16, 8, 4, 2, 1. cGMP concentrations in the test plates were determined from each sample using the LC/MS conditions shown in Table 2 below and the calculated cGMP standard curve. EC50 values were calculated from concentration-response curves generated with GraphPad Prism Software. Data were normalized to a high control using the following equation: 100*(Sample−Low Control)/(High Control−Low Control), where the low control is the average of 6 samples treated with 1% DMSO, and the high control is the average of 8-12 samples treated with 10 uM BAY 41-2272. Data were fit using a non-linear regression, sigmoidal dose response, 3 parameter fits.

Chain of soluble guanylate cyclase (sGC) (Q02153 whole entry): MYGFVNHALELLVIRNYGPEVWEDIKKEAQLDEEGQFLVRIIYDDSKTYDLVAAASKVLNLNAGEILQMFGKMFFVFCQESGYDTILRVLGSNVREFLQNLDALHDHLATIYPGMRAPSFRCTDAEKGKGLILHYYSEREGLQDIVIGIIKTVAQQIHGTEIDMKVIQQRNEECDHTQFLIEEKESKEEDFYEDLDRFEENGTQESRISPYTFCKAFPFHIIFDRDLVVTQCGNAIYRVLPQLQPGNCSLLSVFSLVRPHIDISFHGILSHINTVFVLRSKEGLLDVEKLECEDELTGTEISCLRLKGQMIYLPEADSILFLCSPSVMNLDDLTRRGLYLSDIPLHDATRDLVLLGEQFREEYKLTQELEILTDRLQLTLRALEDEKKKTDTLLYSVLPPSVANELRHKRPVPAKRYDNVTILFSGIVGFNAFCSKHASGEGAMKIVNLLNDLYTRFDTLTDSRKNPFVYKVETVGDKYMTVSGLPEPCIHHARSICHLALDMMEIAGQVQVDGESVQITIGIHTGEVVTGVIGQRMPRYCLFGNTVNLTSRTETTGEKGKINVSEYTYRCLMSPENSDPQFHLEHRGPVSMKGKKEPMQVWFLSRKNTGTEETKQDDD
Chain of soluble guanylate cyclase (sGC) (Q02108 whole entry): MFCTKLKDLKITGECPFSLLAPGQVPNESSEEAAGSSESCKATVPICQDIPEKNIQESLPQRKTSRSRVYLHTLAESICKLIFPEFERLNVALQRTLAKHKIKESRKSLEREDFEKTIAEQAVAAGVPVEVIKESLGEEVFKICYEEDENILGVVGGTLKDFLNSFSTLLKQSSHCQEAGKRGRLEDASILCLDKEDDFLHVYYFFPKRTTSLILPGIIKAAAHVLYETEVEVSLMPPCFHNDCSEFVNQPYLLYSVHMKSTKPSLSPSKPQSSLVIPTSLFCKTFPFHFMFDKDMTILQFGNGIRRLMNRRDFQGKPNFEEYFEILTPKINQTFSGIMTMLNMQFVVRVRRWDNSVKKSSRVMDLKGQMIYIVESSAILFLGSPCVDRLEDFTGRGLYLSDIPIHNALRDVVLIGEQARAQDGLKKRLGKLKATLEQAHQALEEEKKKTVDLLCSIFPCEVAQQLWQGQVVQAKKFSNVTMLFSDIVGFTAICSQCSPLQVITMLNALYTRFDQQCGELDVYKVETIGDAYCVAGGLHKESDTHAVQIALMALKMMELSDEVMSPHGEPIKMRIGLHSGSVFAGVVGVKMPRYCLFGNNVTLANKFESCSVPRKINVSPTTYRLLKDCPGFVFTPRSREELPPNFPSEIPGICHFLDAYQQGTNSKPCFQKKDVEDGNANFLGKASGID

Regarding `CN(C)CCNc1nc(-c2cc(-c3ccon3)n(Cc3ccccc3F)n2)ncc1F` [Compound I-7], the maximal response (Emax) (commonly the greatest response seen or fitted, relative to the assay's reference) lay within 40 to 60% and the concentration for a half-maximal effect (EC50) (usually the concentration giving half of the maximal effect) fell in the range of 1000 to 5000 nM.
Take `CN(C)c1nc(-c2cc(-c3ccon3)n(Cc3ccccc3F)n2)ncc1F` [Compound I-8]: the Emax was 60 to 80% and the EC50 lay within 100 to 500 nM.
Turning to `Fc1ccccc1Cn1nc(-c2ncc(F)c(NC3CCCCC3)n2)cc1-c1ccon1` [Compound I-9], the Emax was in the range of 80 to 100% and the concentration giving a half-maximal response (EC50) is 100 to 500 nM.
For `CC(C)(C)OC(=O)N1CCC(Nc2nc(-c3cc(-c4ccon4)n(Cc4ccccc4F)n3)ncc2F)CC1` [Compound I-12], the Emax lay in the range of 100 to 120% and the EC50 was in the range of 1000 to 5000 nM.
For the compound `OC[C@@H]1CCCN1c1nc(-c2cc(-c3ccon3)n(Cc3ccccc3F)n2)ncc1F` [Compound I-13], the Emax was in the range of 60 to 80% and the EC50 fell in the range of 100 to 500 nM.
Taken in the same sequence, the figures for `COC1CCN(c2nc(-c3cc(-c4ccon4)n(Cc4ccccc4F)n3)ncc2F)C1` (stereo not drawn) [Compound I-17] were 60 to 80% and 100 to 500 nM.
With `OC1CCCN(c2nc(-c3cc(-c4ccon4)n(Cc4ccccc4F)n3)ncc2F)C1` (stereo not drawn) [Compound I-18], the Emax lay in the range of 60 to 80%.
On to `OC1CCN(c2nc(-c3cc(-c4ccon4)n(Cc4ccccc4F)n3)ncc2F)C1` (stereo not drawn) [Compound I-20], for which the Emax lay within 60 to 80% and the EC50 was 100 to 500 nM.
For `CC(C)(C)OC(=O)NC1CN(c2nc(-c3cc(-c4ccon4)n(Cc4ccccc4F)n3)ncc2F)C1` [Compound I-21, tert-butyl (1-(5-fluoro-2-(1-(2-fluorobenzyl)-5-(isoxazol-3-yl)-1H-pyrazol-3-yl)pyrimidin-4-yl)azetidin-3-yl)carbamate], the maximum response (Emax) was 40 to 60% and the EC50 fell in the range of 100 to 500 nM.
For `COC1CCN(c2nc(-c3cc(-c4ccon4)n(Cc4ccccc4F)n3)ncc2F)CC1` [Compound I-22], in that order: 60 to 80% and 100 to 500 nM.
Taken in the same sequence, the figures for `CC(C)(C)OC(=O)NC1CCCN(c2nc(-c3cc(-c4ccon4)n(Cc4ccccc4F)n3)ncc2F)C1` (stereo not drawn) [Compound I-25] were 40 to 60% and 500 to 1000 nM.
For `CC(C)(C)OC(=O)N1CC(Nc2nc(-c3cc(-c4ccon4)n(Cc4ccccc4F)n3)ncc2F)C1` [Compound I-26], in that order: 60 to 80% and 100 to 500 nM.
Regarding `CC(C)(C)OC(=O)N1CCCC(Nc2nc(-c3cc(-c4ccon4)n(Cc4ccccc4F)n3)ncc2F)C1` (stereo not drawn) [Compound I-27], the Emax lay in the range of 60 to 80% and the EC50 lay in the range of 500 to 1000 nM.
Turning to `Fc1ccccc1Cn1nc(-c2ncc(Cl)c(N3CCOCC3)n2)cc1-c1ccon1` [Compound I-28], the Emax is 60 to 80% and the EC50 fell in the range of 1000 to 5000 nM.
With `O=C1CC2(CCN(c3nc(-c4cc(-c5ccon5)n(Cc5ccccc5F)n4)ncc3F)CC2)CN1` [Compound I-30], the Emax lay in the range of 80 to 100% and the EC50 lay in the range of 100 to 500 nM.
In the case of `O=C(CNc1nc(-c2cc(-c3ccon3)n(Cc3ccccc3F)n2)ncc1F)N1CCOCC1` [Compound I-31], the Emax fell in the range of 60 to 80% and the EC50 is 500 to 1000 nM.
Taken in the same sequence, the figures for `Fc1ccccc1Cn1nc(-c2ncc(F)c(N3CC4(COC4)C3)n2)cc1-c1ccon1` [Compound I-32] were 60 to 80% and 100 to 500 nM.
Take `CC1COCCN1c1nc(-c2cc(-c3ccon3)n(Cc3ccccc3F)n2)ncc1F` (stereo not drawn) [Compound I-33]: the Emax was in the range of 60 to 80% and the EC50 lay within 100 to 500 nM.
Taken in the same sequence, the figures for `COC(=O)C1CCCN1c1nc(-c2cc(-c3ccon3)n(Cc3ccccc3F)n2)ncc1F` (stereo not drawn) [Compound I-34] were 40 to 60% and 500 to 1000 nM.
Regarding `NC1CCCN(c2nc(-c3cc(-c4ccon4)n(Cc4ccccc4F)n3)ncc2F)C1` (stereo not drawn) [Compound I-37], the Emax fell in the range of 60 to 80% and the 50% effective concentration (EC50) was in the range of 1000 to 5000 nM.
With `Fc1ccccc1Cn1nc(-c2ncc(F)c(NC3CNC3)n2)cc1-c1ccon1` [Compound I-38], the maximal response (Emax) lay within 60 to 80% and the EC50 lay within 5000 to 10000 nM.
Regarding `NC1CN(c2nc(-c3cc(-c4ccon4)n(Cc4ccccc4F)n3)ncc2F)C1` [Compound I-40, 1-(5-fluoro-2-(1-(2-fluorobenzyl)-5-(isoxazol-3-yl)-1H-pyrazol-3-yl)pyrimidin-4-yl)azetidin-3-amine], the maximal effect (Emax) lay in the range of 60 to 80% and the EC50 lay in the range of 1000 to 5000 nM.
Regarding `O=C(O)C1CCCN1c1nc(-c2cc(-c3ccon3)n(Cc3ccccc3F)n2)ncc1F` (stereo not drawn) [Compound I-41], the Emax fell in the range of 60 to 80%.
For `Fc1ccccc1Cn1nc(-c2ncc(F)c(N3CCC4(CC3)COC4)n2)cc1-c1ccon1` [Compound I-42], the maximal response (Emax) fell in the range of 80 to 100% and the EC50 is 100 to 500 nM.
Taken in the same sequence, the figures for `Fc1ccccc1Cn1nc(-c2ncc(F)c(N3CCC4(CCOCC4)C3)n2)cc1-c1ccon1` [Compound I-43] were 60 to 80% and 1 to 100 nM.
Take `CC(C)(C)OC(=O)N1CCC2(CCN(c3nc(-c4cc(-c5ccon5)n(Cc5ccccc5F)n4)ncc3F)C2)C1` (stereo not drawn) [Compound I-45]: the Emax is 40 to 60% and the EC50 lay in the range of 1000 to 5000 nM.
For the compound `NC1CCN(c2nc(-c3cc(-c4ccon4)n(Cc4ccccc4F)n3)ncc2F)C1` (stereo not drawn) [Compound I-46], the Emax fell in the range of 60 to 80% and the EC50 lay in the range of 1000 to 5000 nM.
Take `Fc1ccccc1Cn1nc(-c2ncc(F)c(N3CCCC4(COC4)C3)n2)cc1-c1ccon1` [Compound I-47]: the Emax is 40 to 60% and the EC50 was 100 to 500 nM.
In the case of `COC(=O)C1CCCCN1c1nc(-c2cc(-c3ccon3)n(Cc3ccccc3F)n2)ncc1F` (stereo not drawn) [Compound I-48], the maximal response (Emax) fell in the range of 60 to 80% and the EC50 is 1000 to 5000 nM.
Turning to `COC(=O)N(C(=O)OC)c1nc(-c2cc(-c3ccon3)n(Cc3ccccc3F)n2)ncc1F` [Compound I-52], the Emax lay within 60 to 80% and the EC50 fell in the range of 1000 to 5000 nM.
For `Fc1ccccc1Cn1nc(-c2ncc(F)c(N3CCCC(F)C3)n2)cc1-c1ccon1` (stereo not drawn) [Compound I-56], the Emax was 80 to 100% and the concentration giving a half-maximal response (EC50) fell in the range of 100 to 500 nM.
Consider `CCN(CC)c1nc(-c2cc(-c3ccon3)n(Cc3ccccc3F)n2)ncc1F` [Compound I-60], for which the Emax lay within 100 to 120% and the EC50 lay within 500 to 1000 nM.
Consider `Fc1ccccc1Cn1nc(-c2ncc(F)c(N3CC(F)(F)C3)n2)cc1-c1ccon1` [Compound I-61], for which the Emax was in the range of 80 to 100% and the EC50 lay within 500 to 1000 nM.
For `Fc1ccccc1Cn1nc(-c2ncc(F)c(N3CCC(F)(F)C3)n2)cc1-c1ccon1` [Compound I-63], in that order: 60 to 80% and 100 to 500 nM.
As for `CC1(Nc2nc(-c3cc(-c4ccon4)n(Cc4ccccc4F)n3)ncc2F)CCOCC1` [Compound I-64], the Emax lay within 80 to 100% and the EC50 lay in the range of 1 to 100 nM.
Consider `CC(C)(C)Nc1nc(-c2cc(-c3ccon3)n(Cc3ccccc3F)n2)ncc1F` [Compound I-65], for which the Emax is 60 to 80% and the EC50 is 500 to 1000 nM.
Taken in the same sequence, the figures for `NC(=O)C1CCCN(c2nc(-c3cc(-c4ccon4)n(Cc4ccccc4F)n3)ncc2F)C1` (stereo not drawn) [Compound I-66] were 60 to 80% and 100 to 500 nM.
For `O=C(O)[C@H](CO)Nc1nc(-c2cc(-c3ccon3)n(Cc3ccccc3F)n2)ncc1F` [Compound I-68], in that order: 60 to 80% and 5000 to 10000 nM.
In the case of `CCNC(=O)NC1CCCN(c2nc(-c3cc(-c4ccon4)n(Cc4ccccc4F)n3)ncc2F)C1` (stereo not drawn) [Compound I-70], the Emax is 80 to 100% and the EC50 was 100 to 500 nM.
With `CCNC(=O)NC1CN(c2nc(-c3cc(-c4ccon4)n(Cc4ccccc4F)n3)ncc2F)C1` [Compound I-71], the maximal effect (Emax) fell in the range of 60 to 80% and the EC50 was in the range of 100 to 500 nM.
Regarding `O=S1(=O)CCN(C2CN(c3nc(-c4cc(-c5ccon5)n(Cc5ccccc5F)n4)ncc3F)C2)CC1` [Compound I-72], the Emax lay in the range of 60 to 80% and the EC50 fell in the range of 100 to 500 nM.
As for `COc1cnc(-c2cc(-c3ccon3)n(Cc3ccccc3F)n2)nc1N1CCOCC1` [Compound I-73], the Emax is 40 to 60% and the EC50 lay within 5000 to 10000 nM.
For `Fc1ccccc1Cn1nc(-c2ncc(F)c(-n3cccn3)n2)cc1-c1ccon1` [Compound I-74], the Emax lay in the range of 40 to 60% and the EC50 was in the range of 1000 to 5000 nM.
